“Also recorded” adds a separate entry of the source. Read-outs that look alike come from different tables or passages of the source. Marks after values point to notes of the source that are not given here.
Columns and labels:
PPC-1 [1] = assay: SRB cytotoxicity assay, PPC-1; assay type: cell-based, human
OVCAR-8 = assay: SRB cytotoxicity assay, OVCAR-8; assay type: cell-based, human
Bovine brain tubulin = assay: In vitro microtubule; assay type: biochemical; details: 10 μM compound, absorbance 340 nm, 15 min
ICR mice [2] = assay: Acute toxicity study in ICR mice; assay type: in vivo; details: 4 consecutive days of intraperitoneal dosing
[3] = rat, in vivo, iv, 2.5 mg/kg
[4] = system: PC-3 prostate tumor xenograft; details: for %T/C values (range): both PC-3 and A375 xenograft models, doses 5 to 20 mg/kg
A375 melanoma xenograft = details: 34 days; for % T/C: A375 melanoma xenograft; for Tumor volume at end of treatment: A375 xenograft, control 2183 ± 279
LNCaP [5] = details: read-out: IC50 ± SEM; LNCaP prostate, SRB; previously reported ref 11; cited from earlier work
PC-3 [6] = details: read-out: IC50 ± SEM; PC-3 prostate, SRB; previously reported ref 11; cited from earlier work
B16-F1 [7] = details: read-out: IC50 ± SEM; B16-F1 melanoma, SRB; previously reported ref 11; cited from earlier work
A375 [8] = details: read-out: IC50 ± SEM; A375 melanoma, SRB; previously reported ref 11; cited from earlier work
[9] = Pharmacokinetic study in ICR mice, i.v.; details: 15 mg/kg i.v.
[10] = Pharmacokinetic study in Sprague-Dawley rats, i.v.; details: 2.5 mg/kg i.v.
tubulin = assay: MS competitive binding assay on tubulin binding sites
PC-3 cells = assay type: cell-based, human
ICR mice [11] = details: mouse, 15 mg/kg
Du-145 [12] = details: read-out: IC50 ± SEM; Du-145 prostate, SRB; previously reported ref 11; cited from earlier work
PPC-1 [13] = details: read-out: IC50 ± SEM; PPC-1 prostate, SRB; previously reported ref 11; cited from earlier work
[14] = mice, 15 mg/kg i.v.; ref C. M. Li et al, in press; cited from earlier work
[15] = cited from earlier work
ICR mice [16] = assay: Rotarod test
LNCaP [17] = assay: SRB cytotoxicity assay, LNCaP; assay type: cell-based, human; details: read-out: IC50 ± SEM
PC-3 [18] = assay: SRB cytotoxicity assay, PC-3; assay type: cell-based, human
Du-145 [19] = assay: SRB cytotoxicity assay, Du-145; assay type: cell-based, human
B16-F1 [20] = assay: SRB cytotoxicity assay, B16-F1; assay type: cell-based
A375 [21] = assay: SRB cytotoxicity assay, A375; assay type: cell-based, human
NCI/ADR-RES = assay: SRB cytotoxicity assay, NCI/ADR-RES; assay type: cell-based, human
[22] = system: prostate cancer and melanoma cell lines; assay: SRB antiproliferative assay, ranges over the cell line panel; assay type: cell-based, human; details: read-out: IC50 (range over cell lines), Table 1 cell lines
PC-3 and A375 cells = assay: Apoptosis detection by ELISA; assay type: cell-based, human; details: 24 h treatment
[23] = Homo sapiens, PPC-1, read-out: IC50 ± SEM
[24] = read-out: IC50 ± SEM, OVCAR-8 ovarian (parent), SRB, n = 3
[25] = PC-3 xenograft, 5 mg/kg, start 150 mm^3, control 680 ± 198
[26] = PC-3 xenograft, 15 mg/kg, start 150 mm^3, control 680 ± 198

**Q.** Which results are given for `CC(=O)O[C@H]1C(=O)[C@@]2(C)[C@H]([C@H](OC(=O)c3ccccc3)[C@]3(O)C[C@H](OC(=O)[C@H](O)[C@@H](NC(=O)c4ccccc4)c4ccccc4)C(C)=C1C3(C)C)[C@]1(OC(C)=O)CO[C@@H]1C[C@@H]2O` [Paclitaxel]?
**A.** IC50 (PPC-1 [1]; [23]): 0.0023 ± 0.0008 µM; IC50 (OVCAR-8; Homo sapiens, OVCAR-8, read-out: IC50 ± SEM): 0.0047 ± 0.0001 µM

**Q.** Which results are given for `COc1cc(C(=O)c2csc(-c3ccc(F)cc3)n2)cc(OC)c1OC` [SMART-F]?
**A.** Inhibition of tubulin polymerization (Bovine brain tubulin): 90%; IC50 (OVCAR-8; [24]): 0.034 ± 0.003 µM; Doses that did not cause greater than 10% loss of body weight (ICR mice [2]): ≤ 15 mg/kg; AUC [3]: 1.6 µg·h/mL; CL [3]: 0.66 L/h/kg; Vss [3]: 34 L/kg; Tumor volume by day 21 [4, 25]: 269 ± 177 mm^3; Tumor volume by day 21 [4, 26]: 292 ± 103 mm^3; %T/C values (range) [4]: 4–30%; % T/C (A375 melanoma xenograft; 15 mg/kg i.p. daily, 15 mg/kg): 29%; Tumor volume at end of treatment (A375 melanoma xenograft; 15 mg/kg): 722 ± 135 mm^3; IC50 (LNCaP [5]): 0.006 ± 0.001 µM; IC50 (PC-3 [6]): 0.013 ± 0.001 µM; IC50 (B16-F1 [7]): 0.043 ± 0.021 µM; IC50 (A375 [8]): 0.033 ± 0.014 µM; t1/2 [9]: 2.35 h; t1/2 [10]: 40.17 h

**Q.** With `COc1cc(C(=O)c2csc(-c3ccccc3)n2)cc(OC)c1OC` [SMART-H] as the molecule, how does the “Inhibition of tubulin polymerization” value (Bovine brain tubulin) read?
**A.** 90%

**Q.** What about the “Competition with colchicine binding to tubulin” value (tubulin) of the same molecule?
**A.** specifically competed with colchicine binding to tubulin

**Q.** What about the “Competition with paclitaxel binding to tubulin” value (tubulin) of the same molecule?
**A.** did not compete

**Q.** What about the “Competition with vinblastine binding to tubulin” value (tubulin) of the same molecule?
**A.** did not compete

**Q.** What about the IC50 (OVCAR-8; [24]) of the same molecule?
**A.** 0.035 ± 0.002 µM

**Q.** And the IC50 (PC-3 cells; PC-3 cells from ATCC (in vitro control))?
**A.** 0.0291 ± 0.0011 µM

**Q.** What about the IC50 (PC-3 cells; dissociated cells from SMART-H (15 mg/kg, 21 days) treated PC-3 tumors) of the same molecule?
**A.** 0.0304 ± 0.0005 µM

**Q.** And the IC50 (PC-3 cells; dissociated cells from vehicle treated PC-3 tumors, 21 days)?
**A.** 0.0291 ± 0.0008 µM

**Q.** And the “Doses that did not cause greater than 10% loss of body weight” value (ICR mice [2])?
**A.** up to 30 mg/kg

**Q.** And the “Tumor volume by day 21” value [4, 25]?
**A.** 370 ± 103 mm^3

**Q.** And the “Tumor volume by day 21” value [4, 26]?
**A.** 176 ± 112 mm^3

**Q.** And the “%T/C values (range)” value [4]?
**A.** 4–30%

**Q.** What about the “% T/C” value (A375 melanoma xenograft; 20 mg/kg i.p. daily, 20 mg/kg) of the same molecule?
**A.** 28%

**Q.** What about the “Tumor volume at end of treatment” value (A375 melanoma xenograft; 20 mg/kg) of the same molecule?
**A.** 775 ± 107 mm^3

**Q.** And the Neurotoxicity in vivo (ICR mice [11])?
**A.** failed to produce any apparent neurotoxicity

**Q.** What about the IC50 (LNCaP [5]) of the same molecule?
**A.** 0.028 ± 0.004 µM

**Q.** What about the IC50 (PC-3 [6]) of the same molecule?
**A.** 0.021 ± 0.001 µM

**Q.** What about the IC50 (Du-145 [12]) of the same molecule?
**A.** 0.071 ± 0.004 µM

**Q.** What about the IC50 (PPC-1 [13]) of the same molecule?
**A.** 0.043 ± 0.005 µM

**Q.** What about the IC50 (B16-F1 [7]) of the same molecule?
**A.** 0.055 ± 0.005 µM

**Q.** What about the IC50 (A375 [8]) of the same molecule?
**A.** 0.028 ± 0.005 µM

**Q.** What about the t1/2 [14] of the same molecule?
**A.** 140 ^a min

**Q.** What about the AUC ([15]; rat, in vivo, iv, 2.5 mg/kg) of the same molecule?
**A.** 5.8 ^a hr * μg/mL

**Q.** What about the CL ([15]; rat, in vivo, iv, 2.5 mg/kg) of the same molecule?
**A.** 6 ^a mL/min/kg

**Q.** What about the Vss ([15]; rat, in vivo, iv, 2.5 mg/kg) of the same molecule?
**A.** 7.6 ^a L/kg

**Q.** What about the t1/2 ([15]; rats, 2.5 mg/kg i.v., ref C. M. Li et al, in press) of the same molecule?
**A.** 1431 ^a min

**Q.** And the “Rotarod performance (time on rotating rod) vs vehicle” value (ICR mice [16]; 5 or 15 mg/kg i.p. daily, to day 31)?
**A.** no significant difference; also recorded: did not show significant impairment in motor coordination

**Q.** Which “Inhibition of tubulin polymerization” value (Bovine brain tubulin) does the source give for `COc1cc(C(=O)c2csc(-c3ccc(O)cc3)n2)cc(OC)c1OC` [SMART-OH] here?
**A.** 55%

**Q.** And the IC50 (LNCaP [17]; LNCaP prostate, SRB, n = 3)?
**A.** 0.103 ± 0.009 µM

**Q.** And the IC50 (PC-3 [18]; read-out: IC50 ± SEM, PC-3 prostate, SRB, n = 3)?
**A.** 0.087 ± 0.005 µM

**Q.** And the IC50 (Du-145 [19]; read-out: IC50 ± SEM, Du-145 prostate, SRB, n = 3)?
**A.** 0.116 ± 0.014 µM

**Q.** What about the IC50 (PPC-1 [1]; read-out: IC50 ± SEM, PPC-1 prostate, SRB, n = 3) of the same molecule?
**A.** 0.076 ± 0.002 µM

**Q.** What about the IC50 (B16-F1 [20]; read-out: IC50 ± SEM, B16-F1 melanoma, SRB, n = 3) of the same molecule?
**A.** 0.113 ± 0.006 µM

**Q.** What about the IC50 (A375 [21]; read-out: IC50 ± SEM, A375 melanoma, SRB, n = 3) of the same molecule?
**A.** 0.093 ± 0.011 µM

**Q.** What about the IC50 (OVCAR-8; [24]) of the same molecule?
**A.** 0.11 ± 0.008 µM

**Q.** And the “Resistance Factor” value (NCI/ADR-RES; NCI/ADR-RES relative to OVCAR-8)?
**A.** 0.4

**Q.** What about the IC50 (NCI/ADR-RES; read-out: IC50 ± SEM, NCI/ADR-RES ovarian (P-gp over-expressing), SRB, n = 3) of the same molecule?
**A.** 0.045 ± 0.005 µM

**Q.** And the IC50 [22]?
**A.** 0.076 to 0.116 µM

**Q.** And the “Concentration inducing apoptosis (cytoplasmic DNA-histone complexes)” value (PC-3 and A375 cells)?
**A.** ≥ 200 nM

**Q.** What about the “Potency relative to SMART-H (fold less)” value ([4]; PC-3 xenograft model, SMART-OH at higher dosage) of the same molecule?
**A.** 10 fold

**Q.** What about the “Tumor volume at day 21” value ([4]; PC-3 xenograft, 50 mg/kg, start 150 mm^3, control 680 ± 198) of the same molecule?
**A.** 331 ± 130 mm^3

**Q.** Which results are given for `CC[C@]1(O)C[C@@H]2CN(CCc3c([nH]c4ccccc34)[C@@](C(=O)OC)(c3cc4c(cc3OC)N(C)[C@H]3[C@@](O)(C(=O)OC)[C@H](OC(C)=O)[C@]5(CC)C=CCN6CC[C@]43[C@@H]65)C2)C1` [Vinblastine]?
**A.** IC50 (LNCaP [17]; Homo sapiens, LNCaP): 0.0011 ± 0.0001 µM; IC50 (PC-3 [18]; Homo sapiens, PC-3, read-out: IC50 ± SEM): 0.0021 ± 0.0002 µM; IC50 (Du-145 [19]; Homo sapiens, DU-145, read-out: IC50 ± SEM): 0.0018 ± 0.0011 µM; IC50 (PPC-1 [1]; [23]): 0.0011 ± 0.0004 µM; IC50 (B16-F1 [20]; Mus musculus, B16-F1, read-out: IC50 ± SEM): 0.0047 ± 0.0007 µM; IC50 (A375 [21]; Homo sapiens, A-375, read-out: IC50 ± SEM): 0.0011 ± 0.0002 µM; Rotarod performance (time on rotating rod) vs vehicle (ICR mice [16]; 0.5 mg/kg i.p. daily, to day 31, 0.5 mg/kg): gradually reduced the time (in seconds) that the mice could stay on the rotating rod, and attained significance by days 27 and 31; also recorded: lesser ability to stay on the rotating rod; Rotarod post-observation after treatment stopped (ICR mice [16]; 4 weeks after drug treatment was stopped): failed to return to baseline

Reference: publication PMC3039446 (Cancer research, 2010)
